Measurements from patent EP4667467A1, “PROTAC DEGRADERS OF MLLT1 AND/OR MLLT3” (Dark Blue Therapeutics Ltd, priority 2024, dated 2025).

Molecular target: T1, MLLT1 (Homo sapiens, UniProt Q03111)
T1 construct: endogenous in cells; host or cells: MV4-11 (ATCC CRL-9591)
T1 sequence (Q03111 1-559): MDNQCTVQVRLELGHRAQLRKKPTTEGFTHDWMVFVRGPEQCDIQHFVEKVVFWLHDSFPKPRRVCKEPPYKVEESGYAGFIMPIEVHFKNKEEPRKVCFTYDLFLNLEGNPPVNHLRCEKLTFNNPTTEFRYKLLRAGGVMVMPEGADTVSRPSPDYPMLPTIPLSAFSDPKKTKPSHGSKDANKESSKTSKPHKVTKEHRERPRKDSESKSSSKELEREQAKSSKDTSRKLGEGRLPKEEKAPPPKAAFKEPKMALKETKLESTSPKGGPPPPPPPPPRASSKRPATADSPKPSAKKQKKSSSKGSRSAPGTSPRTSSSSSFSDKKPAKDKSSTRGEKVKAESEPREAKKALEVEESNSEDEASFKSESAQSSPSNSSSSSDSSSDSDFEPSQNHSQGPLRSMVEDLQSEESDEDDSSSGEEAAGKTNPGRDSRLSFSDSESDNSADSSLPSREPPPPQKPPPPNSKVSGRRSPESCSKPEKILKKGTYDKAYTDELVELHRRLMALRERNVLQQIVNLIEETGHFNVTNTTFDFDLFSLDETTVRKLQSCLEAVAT
Experiment: MLLT1 Degradation Assay (JESS automated chemiluminescent detection, MV4-11 cells)
Type: cell-based
Settings: 24h, with respect to DMSO control; for MLLT1 % Degradation @ 0.01 µM: 0.01 µM (10 nM) test compound; for MLLT1 % Degradation @ 0.1 µM: 0.1 µM (100 nM) test compound; for MLLT 1 % Degradation @ 1 µM: 1 µM (1000 nM) test compound
Summary of the method: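 MV4-11 cells were treated for 24 h at 37 °C, 5% CO2 with compound at 1000, 100 and 10 nM (0.1% DMSO). MLLT1 was quantified by automated capillary chemiluminescent immunodetection (JESS). Band peak areas were expressed as % degradation relative to DMSO control.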

MLLT1 % Degradation @ 0.01 µM	MLLT1 % Degradation @ 0.1 µM	Compound	MLLT 1 % Degradation @ 1 µM
A (Category A: A ≥ 75% degradation)	A (Category A: A ≥ 75% degradation)	CN1CCC[C@@H]1c1cc2cnc(NC(=O)c3ccc(-c4cnn(CCCC5CCN(c6cccc7c6CN(C6CCC(=O)NC6=O)C7=O)CC5)c4)cc3)cc2[nH]1 (stereo partly drawn) [Example 35, 4-[1-(3-{1-[2-(2,6-dioxopiperidin-3-yl)-1-oxo-3H-isoindol-4-yl]piperidin-4-yl}propyl)pyrazol-4-yl]-N-{2-[(2R)-1-methylpyrrolidin-2-yl]-1H-pyrrolo[3,2-c]pyridin-6-yl}benzamide]	A (Category A: A ≥ 75% degradation)
A (Category A: A ≥ 75% degradation)	A (Category A: A ≥ 75% degradation)	CN1CCC[C@@H]1c1cc2cnc(NC(=O)c3ccc(-c4cnn(CCCC#Cc5ccc6c(c5)CN(C5CCC(=O)NC5=O)C6=O)c4)cc3)cc2[nH]1 (stereo partly drawn) [Example 22, 4-(1-(5-(2-(2,6-dioxopiperidin-3-yl)-1-oxoisoindolin-5-yl)pent-4-yn-1-yl)-1H-pyrazol-4-yl)-N-(2-((R)-1-methylpyrrolidin-2-yl)-1H-pyrrolo[3,2-c]pyridin-6-yl)benzamide]	A (Category A: A ≥ 75% degradation)
A (Category A: A ≥ 75% degradation)	A (Category A: A ≥ 75% degradation)	CN1CCC[C@@H]1c1cc2cnc(NC(=O)c3ccc(N4CCC(C5CCN(c6cccc7c6CN(C6CCC(=O)NC6=O)C7=O)CC5)CC4)nc3)cc2[nH]1 (stereo partly drawn) [Example 75, 6-(1'-(2-(2,6-dioxopiperidin-3-yl)-1-oxoisoindolin-4-yl)-[4,4'-bipiperidin]-1-yl)-N-(2-((R)-1-methylpyrrolidin-2-yl)-1H-pyrrolo[3,2-c]pyridin-6-yl)nicotinamide]	A (Category A: A ≥ 75% degradation)
A (Category A: A ≥ 75% degradation)	A (Category A: A ≥ 75% degradation)	CN1CCC[C@@H]1c1cc2cnc(NC(=O)c3ccc(CCC#Cc4cccc5c4CN(C4CCC(=O)NC4=O)C5=O)cc3)cc2[nH]1 (stereo partly drawn) [Example 52, 4-(4-(2-(2,6-dioxopiperidin-3-yl)-1-oxoisoindolin-4-yl)but-3-yn-1-yl)-N-(2-((R)-1-methylpyrrolidin-2-yl)-1H-pyrrolo[3,2-c]pyridin-6-yl)benzamide]	B (Category B: 50% ≤ B < 75% degradation)

Continued, compound first:

Compound	MLLT1 % Degradation @ 0.01 µM	MLLT1 % Degradation @ 0.1 µM	MLLT 1 % Degradation @ 1 µM
CN1CCC[C@@H]1c1cc2cnc(NC(=O)c3ccc(N4CCC(OCC5CCN(c6cccc7c6C(=O)N(C6CCC(=O)NC6=O)C7=O)CC5)CC4)nc3)cc2[nH]1 (stereo partly drawn) [Example 18, 6-(4-((1-(2-(2,6-dioxopiperidin-3-yl)-1,3-dioxoisoindolin-4-yl)piperidin-4-yl)methoxy)piperidin-1-yl)-N-(2-((R)-1-methylpyrrolidin-2-yl)-1H-pyrrolo[3,2-c]pyridin-6-yl)nicotinamide]	B (Category B: 50% ≤ B < 75% degradation)	A (Category A: A ≥ 75% degradation)	A (Category A: A ≥ 75% degradation)
CN1CCC[C@@H]1c1cc2cnc(NC(=O)c3ccc(C4CCN(c5cccc6c5C(=O)N(C5CCC(=O)NC5=O)C6=O)CC4)cc3)cc2[nH]1 (stereo partly drawn) [Example 15, 4-(1-(2-(2,6-dioxopiperidin-3-yl)-1,3-dioxoisoindolin-4-yl)piperidin-4-yl)-N-(2-((R)-1-methylpyrrolidin-2-yl)-1H-pyrrolo[3,2-c]pyridin-6-yl)benzamide]	B (Category B: 50% ≤ B < 75% degradation)	A (Category A: A ≥ 75% degradation)	B (Category B: 50% ≤ B < 75% degradation)
CN1CCC[C@@H]1c1cc2cnc(NC(=O)c3ccc(CCC#Cc4cccc5c4CN(C4CCC(=O)NC4=O)C5=O)cn3)cc2[nH]1 (stereo partly drawn) [Example 49, 5-(4-(2-(2,6-dioxopiperidin-3-yl)-1-oxoisoindolin-4-yl)but-3-yn-1-yl)-N-(2-((R)-1-methylpyrrolidin-2-yl)-1H-pyrrolo[3,2-c]pyridin-6-yl)picolinamide]	D (Category D: D < 25% degradation)	D (Category D: D < 25% degradation)	C (Category C: 25% ≤ C < 50% degradation)
CN1CCC[C@@H]1c1cc2cnc(NC(=O)c3cccc(OCC#Cc4cccc5c4CN(C4CCC(=O)NC4=O)C5=O)c3)cc2[nH]1 (stereo partly drawn) [Example 58, 3-((3-(2-(2,6-dioxopiperidin-3-yl)-1-oxoisoindolin-4-yl)prop-2-yn-1-yl)oxy)-N-(2-((R)-1-methylpyrrolidin-2-yl)-1H-pyrrolo[3,2-c]pyridin-6-yl)benzamide]	B (Category B: 50% ≤ B < 75% degradation)	A (Category A: A ≥ 75% degradation)	C (Category C: 25% ≤ C < 50% degradation)
CN1CCC[C@@H]1c1cc2cnc(NC(=O)c3ccc(CCCCC#Cc4cccc5c4CN(C4CCC(=O)NC4=O)C5=O)nc3)cc2[nH]1 (stereo partly drawn) [Example 10, 6-(6-(2-(2,6-dioxopiperidin-3-yl)-1-oxoisoindolin-4-yl)hex-5-yn-1-yl)-N-(2-((R)-1-methylpyrrolidin-2-yl)-1H-pyrrolo [3,2-c]pyridin-6-yl) nicotinamide]	A (Category A: A ≥ 75% degradation)	A (Category A: A ≥ 75% degradation)	B (Category B: 50% ≤ B < 75% degradation)
CN1CCC[C@@H]1c1cc2cnc(NC(=O)CCCC3CCN(c4cccc5c4C(=O)N(C4CCC(=O)NC4=O)C5=O)CC3)cc2[nH]1 (stereo partly drawn) [Example 41, 4-(1-(2-(2,6-dioxopiperidin-3-yl)-1,3-dioxoisoindolin-4-yl)piperidin-4-yl)-N-(2-((R)-1-methylpyrrolidin-2-yl)-1H-pyrrolo[3,2-c]pyridin-6-yl)butanamide]	B (Category B: 50% ≤ B < 75% degradation)	B (Category B: 50% ≤ B < 75% degradation)	A (Category A: A ≥ 75% degradation)
CN1CCC[C@@H]1c1[nH]c2cc(NC(=O)CCCCCCNc3cccc4c3C(=O)N(C3CCC(=O)NC3=O)C4=O)ncc2c1Cl (stereo partly drawn) [Example 33, N-{3-chloro-2-[(2R)-1-methylpyrrolidin-2-yl]-1H-pyrrolo[3,2-c]pyridin-6-yl}-7-{[2-(2,6-dioxopiperidin-3-yl)-1,3-dioxoisoindol-4-yl]amino}heptanamide]	B (Category B: 50% ≤ B < 75% degradation)	A (Category A: A ≥ 75% degradation)	A (Category A: A ≥ 75% degradation)
CN1CCC[C@@H]1c1[nH]c2cc(NC(=O)CCCCCCC#Cc3cccc4c3CN(C3CCC(=O)NC3=O)C4=O)ncc2c1Cl (stereo partly drawn) [Example 13, N-(3-chloro-2-((R)-1-methylpyrrolidin-2-yl)-1H-pyrrolo [3,2-c]pyridin-6-yl)-9-(2-(2,6-dioxopiperidin-3-yl)-1-oxoisoindolin-4-yl) non-8-ynamide]	A (Category A: A ≥ 75% degradation)	A (Category A: A ≥ 75% degradation)	A (Category A: A ≥ 75% degradation)
CN1CCC[C@@H]1c1[nH]c2cc(NC(=O)c3ccc(CCCCC#Cc4cccc5c4CN(C4CCC(=O)NC4=O)C5=O)nc3)ncc2c1Cl (stereo partly drawn) [Example 71, N-(3-chloro-2-((R)-1-methylpyrrolidin-2-yl)-1H-pyrrolo[3,2-c]pyridin-6-yl)-6-(6-(2-(2,6-dioxopiperidin-3-yl)-1-oxoisoindolin-4-yl)hex-5-yn-1-yl) nicotinamide]	A (Category A: A ≥ 75% degradation)	A (Category A: A ≥ 75% degradation)	B (Category B: 50% ≤ B < 75% degradation)
CCN1CCC[C@@H]1c1cc2cnc(NC(=O)c3ccc(CCCCC#Cc4cccc5c4CN(C4CCC(=O)NC4=O)C5=O)nc3)cc2[nH]1 (stereo partly drawn) [Example 74, 6-(6-(2-(2,6-dioxopiperidin-3-yl)-1-oxoisoindolin-4-yl)hex-5-yn-1-yl)-N-(2-((R)-1-ethylpyrrolidin-2-yl)-1H-pyrrolo [3,2-c]pyridin-6-yl) nicotinamide]	B (Category B: 50% ≤ B < 75% degradation)	B (Category B: 50% ≤ B < 75% degradation)	B (Category B: 50% ≤ B < 75% degradation)
CN1CCC[C@@H]1c1cc2cnc(NC(=O)c3ccc(CCCC#Cc4ccc(C(=O)N[C@H]5CCC(=O)NC5=O)nc4)cc3)cc2[nH]1 [Example 11, N-((S)-2,6-dioxopiperidin-3-yl)-5-(5-(4-((2-((R)-1-methylpyrrolidin-2-yl)-1H-pyrrolo[3,2-c]pyridin-6-yl)carbamoyl)phenyl)pent-1-yn-1-yl)picolinamide]	D (Category D: D < 25% degradation)	C (Category C: 25% ≤ C < 50% degradation)	B (Category B: 50% ≤ B < 75% degradation)
